“And” between values parts separate entries of the source, which are not always exact repeats. Equal values may be shown once. Toxic doses and inconclusive results are not listed.

This test deals with BDF1 mice, P388 leukemia ip, median survival T/C. Put plainly: NCI In Vivo Anticancer Drug Screen. Data for tumor model P388 Leukemia (intraperitoneal) in B6D2F1 (BDF1) mice. The conditions noted are these: endpoint: median survival time, higher = longer survival. A digest of the protocol:
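Mice carrying the transplantable tumour receive compound or vehicle. Survival is followed in each arm, and the treated measure is divided by the vehicle measure.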

[1] abbreviates: dose: 0.5 mg/kg/injection, schedule: Q01DX009 (ip), vehicle: saline.
[2] abbreviates: dose: 1.0 mg/kg/injection, schedule: Q01DX009 (ip), vehicle: saline.
The mark [3] stands for this setting: dose: 2.0 mg/kg/injection, schedule: Q01DX009 (ip), vehicle: saline.
Where [4] appears, read: dose: 25.0 mg/kg/injection, schedule: Q01DX009 (ip), vehicle: Klucel (hydroxypropylcellulose) (HPC).
The mark [5] stands for this setting: dose: 50.0 mg/kg/injection, schedule: Q01DX009 (ip), vehicle: Klucel (hydroxypropylcellulose) (HPC).
Where [6] appears, read: dose: 100.0 mg/kg/injection, schedule: Q01DX009 (ip), vehicle: Klucel (hydroxypropylcellulose) (HPC).
Where [7] appears, read: dose: 200.0 mg/kg/injection, schedule: Q01DX009 (ip), vehicle: Klucel (hydroxypropylcellulose) (HPC).
Setting [8] is: dose: 25.0 mg/kg/injection, schedule: Q04DX003 (ip), vehicle: saline with Tween-80.
The mark [9] stands for this setting: dose: 50.0 mg/kg/injection, schedule: Q04DX003 (ip), vehicle: saline with Tween-80.
The mark [10] stands for this setting: dose: 100.0 mg/kg/injection, schedule: Q04DX003 (ip), vehicle: saline with Tween-80.
The mark [11] stands for this setting: dose: 400.0 mg/kg/injection, schedule: Q01DX009 (ip), vehicle: Klucel (hydroxypropylcellulose) (HPC).
Where [12] appears, read: dose: 15.0 mg/kg/injection, schedule: Q01DX009 (ip), vehicle: saline with Tween-80.
The mark [13] stands for this setting: dose: 30.0 mg/kg/injection, schedule: Q01DX009 (ip), vehicle: saline with Tween-80.
Where [14] appears, read: dose: 200.0 mg/kg/injection, schedule: Q04DX003 (ip), vehicle: saline with Tween-80.
The mark [15] stands for this setting: dose: 400.0 mg/kg/injection, schedule: Q04DX003 (ip), vehicle: saline with Tween-80.

As to `COc1ccc2nc3cc(Cl)ccc3c(Nc3ccc(O)c(CN(CCCl)CCCl)c3)c2c1`, the T/C is 105 % of control (dose: 0.06 mg/kg/injection, schedule: Q01DX009 (ip), vehicle: saline with Tween-80); 99 % of control (dose: 0.09 mg/kg/injection, schedule: Q01DX009 (ip), vehicle: saline with Tween-80); 89 % of control (dose: 0.13 mg/kg/injection, schedule: Q01DX009 (ip), vehicle: saline with Tween-80); 100 % of control (dose: 0.22 mg/kg/injection, schedule: Q04DX003 (ip), vehicle: saline); 118 % of control (dose: 0.33 mg/kg/injection, schedule: Q04DX003 (ip), vehicle: saline); 177 % of control under setting [1]. In addition, the T/C runs as follows: under setting [2], 163 % of control; (dose: 1.0 mg/kg/injection, schedule: Q04DX003 (ip), vehicle: saline) 159 % of control; (dose: 1.33 mg/kg/injection, schedule: Q04DX003 (ip), vehicle: saline) 154 % of control; under setting [3], 104 % of control; (dose: 2.0 mg/kg/injection, schedule: Q04DX003 (ip), vehicle: saline) 158 % of control and 181 % of control; (dose: 3.0 mg/kg/injection, schedule: Q04DX003 (ip), vehicle: saline) 158 % of control and 179 % of control. Moreover, the T/C (dose: 4.5 mg/kg/injection, schedule: Q04DX003 (ip), vehicle: saline) is 195 % of control; the T/C (dose: 6.7 mg/kg/injection, schedule: Q04DX003 (ip), vehicle: saline) is 179 % of control; the T/C (dose: 10.0 mg/kg/injection, schedule: Q04DX003 (ip), vehicle: saline) was 183 % of control.

As for `S=C(Nc1ccccn1)Nc1ccccn1`, the T/C runs as follows: under setting [4], 99 % of control and 106 % of control; under setting [5], 99 % of control and 118 % of control; under setting [6], 89 % of control and 116 % of control; under setting [7], 98 % of control.

Take `CC(O)C1(O)C(O)CC(OC2c3cc4c(c(O)c3[C@@H]3C[C@@]2(C)OC32C=c3cc[nH]c3=N2)C(=O)c2cccc(O)c2C4=O)OC1C` (stereo not given in full): the T/C by setting is: (dose: 0.5 mg/kg/injection, schedule: Q01DX009 (ip), vehicle: saline with Tween-80) 105 % of control; under setting [1], 103 % of control and 109 % of control; (dose: 1.0 mg/kg/injection, schedule: Q01DX009 (ip), vehicle: saline with Tween-80) 119 % of control; under setting [2], 118 % of control and 124 % of control; (dose: 2.0 mg/kg/injection, schedule: Q01DX009 (ip), vehicle: saline with Tween-80) 111 % of control; under setting [3], 111 % of control and 118 % of control. Further, the T/C (dose: 4.0 mg/kg/injection, schedule: Q01DX009 (ip), vehicle: saline with Tween-80) is 117 % of control and the T/C (dose: 8.0 mg/kg/injection, schedule: Q01DX009 (ip), vehicle: saline with Tween-80) was 122 % of control.

Turning to `COC(=O)/C(C#N)=C(\C)CCC=C(C)C`, the T/C is, setting by setting: under setting [8], 95 % of control; under setting [9], 105 % of control; under setting [10], 87 % of control.

As to `CC(=O)Nc1ccccc1F`, the T/C was 100 % of control under setting [6]; 87 % of control (dose: 100.0 mg/kg/injection, schedule: Q04DX003 (ip), vehicle: Klucel (hydroxypropylcellulose) (HPC)); 91 % of control under setting [7]; 104 % of control (dose: 200.0 mg/kg/injection, schedule: Q04DX003 (ip), vehicle: Klucel (hydroxypropylcellulose) (HPC)); 100 % of control under setting [11].

For `O/N=C1/CCCc2ccccc21`, the T/C is, setting by setting: (dose: 100.0 mg/kg/injection, schedule: Q01DX009 (ip), vehicle: saline with Tween-80) 86 % of control; (dose: 200.0 mg/kg/injection, schedule: Q01DX009 (ip), vehicle: saline with Tween-80) 86 % of control; (dose: 400.0 mg/kg/injection, schedule: Q01DX009 (ip), vehicle: saline with Tween-80) 86 % of control.

Regarding `NC(CCC(=O)NNc1ccccc1)C(=O)O` (stereo not given), the T/C reads like this: under setting [12], 96 % of control; under setting [13], 91 % of control.

For `O=C(CC(NC(=O)OCc1ccccc1)C(=O)O)OCc1ccccc1` (stereo not given), the T/C under setting [5] was 122 % of control; the T/C under setting [6] is 111 % of control; the T/C under setting [10] is 104 % of control; the T/C under setting [7] is 111 % of control; the T/C under setting [14] was 100 % of control; the T/C (dose: 264.0 mg/kg/injection, schedule: Q04DX003 (ip), vehicle: saline with Tween-80) is 100 % of control. The T/C was 94 % of control under setting [11]; 100 % of control and 109 % of control under setting [15].

As to `O=C(/C=C/c1ccc2c(c1)OCO2)c1ccc([N+](=O)[O-])cc1`, the T/C by setting is: (dose: 6.25 mg/kg/injection, schedule: Q04DX003 (ip), vehicle: Klucel (hydroxypropylcellulose) (HPC)) 100 % of control; (dose: 12.5 mg/kg/injection, schedule: Q04DX003 (ip), vehicle: Klucel (hydroxypropylcellulose) (HPC)) 100 % of control; (dose: 25.0 mg/kg/injection, schedule: Q04DX003 (ip), vehicle: Klucel (hydroxypropylcellulose) (HPC)) 100 % of control; (dose: 50.0 mg/kg/injection, schedule: Q04DX003 (ip), vehicle: Klucel (hydroxypropylcellulose) (HPC)) 86 % of control; (dose: 100.0 mg/kg/injection, schedule: Q01DX001 (ip), vehicle: Klucel (hydroxypropylcellulose) (HPC)) 105 % of control; (dose: 200.0 mg/kg/injection, schedule: Q01DX001 (ip), vehicle: Klucel (hydroxypropylcellulose) (HPC)) 90 % of control. The T/C (dose: 400.0 mg/kg/injection, schedule: Q01DX001 (ip), vehicle: Klucel (hydroxypropylcellulose) (HPC)) is 92 % of control.

With `CSc1nnnn1-c1ccccc1`, the T/C was 104 % of control (dose: 16.5 mg/kg/injection, schedule: Q01DX009 (ip), vehicle: Klucel (hydroxypropylcellulose) (HPC)); 95 % of control under setting [4]; 104 % of control (dose: 37.5 mg/kg/injection, schedule: Q01DX009 (ip), vehicle: Klucel (hydroxypropylcellulose) (HPC)); 100 % of control under setting [5]; 100 % of control under setting [6].

As for `O=[N+]([O-])C(CO)(CO)CC(F)(F)F`, the T/C was 100 % of control (dose: 3.13 mg/kg/injection, schedule: Q01DX009 (ip), vehicle: saline); 100 % of control (dose: 3.13 mg/kg/injection, schedule: Q04DX003 (ip), vehicle: saline); 104 % of control (dose: 6.25 mg/kg/injection, schedule: Q01DX009 (ip), vehicle: saline); 100 % of control (dose: 6.25 mg/kg/injection, schedule: Q04DX003 (ip), vehicle: saline); 90 % of control (dose: 12.5 mg/kg/injection, schedule: Q01DX009 (ip), vehicle: saline).

With `S=P(NCCNP(=S)(N1CC1)N1CC1)(N1CC1)N1CC1`, the T/C (dose: 33.0 mg/kg/injection, schedule: Q04DX003 (ip), vehicle: saline with Tween-80) is 121 % of control; the T/C under setting [9] is 256 % of control; the T/C (dose: 75.0 mg/kg/injection, schedule: Q04DX003 (ip), vehicle: saline with Tween-80) is 121 % of control.

Take `CCN(CC)c1ccc(/C=C\c2c(C)cnc3ccccc23)cc1`: the T/C under setting [8] was 95 % of control; the T/C under setting [9] is 95 % of control; the T/C under setting [10] was 96 % of control and 110 % of control; the T/C under setting [14] is 97 % of control; the T/C under setting [15] was 97 % of control.

Take `Nc1nc(SSc2nc(N)nc3c2ncn3C2CC(O)C(CO)O2)c2ncn(C3CC(O)C(CO)O3)c2n1` (stereo not given): the T/C reads like this: under setting [5], 150 % of control; under setting [6], 100 % of control.

Regarding `NN1CCCC1`, the T/C was 100 % of control (dose: 25.0 mg/kg/injection, schedule: Q01DX009 (ip), vehicle: saline); 100 % of control (dose: 50.0 mg/kg/injection, schedule: Q01DX009 (ip), vehicle: saline); 86 % of control and 90 % of control and 100 % of control (dose: 100.0 mg/kg/injection, schedule: Q01DX009 (ip), vehicle: saline); 104 % of control (dose: 100.0 mg/kg/injection, schedule: Q04DX003 (ip), vehicle: saline); 100 % of control (dose: 200.0 mg/kg/injection, schedule: Q01DX009 (ip), vehicle: saline); 113 % of control (dose: 200.0 mg/kg/injection, schedule: Q04DX003 (ip), vehicle: saline).

For `O=[N+]([O-])c1ccc(N2CCN(CCO)CC2)c2nonc12`, the T/C runs as follows: under setting [12], 100 % of control; under setting [8], 97 % of control; under setting [13], 97 % of control; under setting [9], 96 % of control.

The record behind these values is PubChem BioAssay AID328 (DTP/NCI, 2004).
